According to the NIST ThermoML archive (doi:10.1016/j.jct.2007.05.017):
± gives the expanded uncertainty stated by the source.

Assay: xn = mol fraction of the nth substance listed
Conditions: Liquid, Vibrating tube method

COC(=O)OC [dimethyl carbonate] + O=C=O
mass density [kg/m3]
Conditions | x2 = 0.2765 | x2 = 0.4101 | x2 = 0.4429 | x2 = 0.5128 | x2 = 0.5573 | x2 = 0.6179 | x2 = 0.6791 | x2 = 0.6922 | x2 = 0.7885 | x2 = 0.7974
273 K | – | 475.4 ± 40 | – | 448.2 ± 40 | – | 373.6 ± 40 | – | 331.4 ± 40 | 260.1 ± 40 | –
283 K | 659.5 ± 40 | – | 569.3 ± 40 | – | 465.6 ± 40 | – | 358.1 ± 40 | – | – | 311.1 ± 40
